# Measured values from patent US20250144067A1, “PERSONALIZED STARVATION THERAPY FOR CANCER” (Faeth Therapeutics, Inc., priority 2021, published 2025).
# Where a name gives a salt, the structure may show the parent alone. Read-outs that look alike come from different tables or passages of the source.
# Legend:
# [1] = test system: NCI-H292 lung cancer cells; test: FDA drug screening, complete media vs cholesterol-free media without statin (TABLE 1); type: cell-based, human
# [2] = test system: NCI-H292 lung cancer cells; test: FDA drug screening, complete media vs cholesterol-free media with simvastatin (TABLE 2); type: cell-based, human
# [3] = NCI-H292 cells, cholesterol-free media without statin, FDA drug library screen
# [4] = NCI-H292 cells, complete media, FDA drug library screen
# [5] = complete vs cholesterol-free media, […]
# [6] = NCI-H292 cells, drug in cholesterol-free media with simvastatin 0.04 μM
# [7] = NCI-H292 cells, drug in complete media
# [8] = complete media vs cholesterol-free media + simvastatin (0.04 μM), […]
# [9] = Complete minus Cholesterol-free, […]
# [10] = NCI-H292 cells, FDA drug library screen, cholesterol-free media without statin
# [11] = NCI-H292 cells, FDA drug library screen, complete media
# [12] = NCI-H292 cells, FDA drug library screen, cholesterol-free media with simvastatin 0.04 μM
# [13] = complete media minus cholesterol-free media + simvastatin, […]
# [14] = Complete minus Cholesterol-free, >0 enhanced anti-cancer activity, about 0 neutral, <0 antagonist
# [15] = NCI-H292 cells, cholesterol-free media without statin
# [16] = NCI-H292 cells, cholesterol-free media with simvastatin 0.04 μM, cell growth value in FDA drug screen
# [17] = NCI-H292 cells, complete media, cell growth value in FDA drug screen
# [18] = complete media minus cholesterol-free media + simvastatin, >0 enhanced anti-cancer activity, about 0 neutral, <0 antagonist
# [19] = NCI-H292 cells, FDA library drug in cholesterol-free media with simvastatin 0.04 μM
# [20] = NCI-H292 cells, FDA library drug in complete media
# [21] = complete media vs cholesterol-free media + simvastatin (0.04 μM), >0 enhanced anti-cancer activity, about 0 neutral, <0 antagonist
# [22] = complete vs cholesterol-free media, greater than 0 enhanced anti-cancer activity, about 0 neutral, below 0 antagonists
# [23] = Complete minus Cholesterol-free, greater than 0 enhanced anti-cancer activity, about 0 neutral, below 0 antagonist
# [24] = complete vs cholesterol-free media, >0 enhanced anti-cancer activity, about 0 neutral, <0 antagonist
molecule,measurement,setting,value
CCN1CCCC(OC(=O)C(c2ccccc2)c2ccccc2)C1 (centres unmarked) [Piperidolate],Cholesterol-free,[1],1.19
same,Complete,[1],0.6819
same,Difference,[1],−0.51
same,Cholesterol-free media + simvastatin (0.04 μM),[2],0.8957
same,Complete Media,[2],1.487
same,Difference,[2],0.59
Edoxaban (tosylate monohydrate),Cholesterol-free,[1]; [3],0.765
same,Complete,[1]; [4],0.9385
same,Difference,[1]; [5],0.17
same,Cholesterol-free media + simvastatin (0.04 μM),[2]; [6],1.271
same,Complete Media,[2]; [7],1.053
same,Difference,[2]; [8],−0.22
Isoconazole (nitrate),Difference,[1]; [9],−0.15
same,Cholesterol-free,[1]; [10],1.53
same,Complete,[1]; [11],1.383
same,Cholesterol-free media + simvastatin (0.04 μM),[2]; [12],0.3001
same,Complete Media,[2]; [11],0.7337
same,Difference,[2]; [13],0.43
CC(C)c1nc(N(C)S(C)(=O)=O)nc(-c2ccc(F)cc2)c1/C=C/[C@@H](O)C[C@@H](O)CC(=O)O [Rosuvastatin (Calcium)],Difference,[1]; [14],−0.24
same,Cholesterol-free,[1]; [15],1.156
same,Complete,"[1]; NCI-H292 cells, complete media",0.9201
same,Cholesterol-free media + simvastatin (0.04 μM),[2]; [16],0.9188
same,Complete Media,[2]; [17],1.001
same,Difference,[2]; [18],0.08
CNCCCC1c2ccccc2C=Cc2ccccc21 [Protriptyline (hydrochloride)],Difference,[1]; [14],−0.19
same,Cholesterol-free,[1]; [15],1.347
same,Cholesterol-free media + simvastatin (0.04 μM),[2]; [19],1.142
same,Complete Media,[2]; [20],0.7923
same,Difference,[2]; [21],−0.35
Oc1ccc(OCc2ccccc2)cc1 [Monobenzone],Difference,"[1]; Complete minus Cholesterol-free, greater than 0 enhanced anti-cancer activity, about 0 neutral, below 0 antagonists",−0.87
same,Cholesterol-free,[1]; NCI-H292 cells in cholesterol-free media without statin,1.95
same,Complete,[1]; NCI-H292 cells in complete media,1.077
same,Cholesterol-free media + simvastatin (0.04 μM),[2]; [12],1.226
same,Complete Media,[2]; [11],1.137
same,Difference,[2]; [21],−0.09
Capreomycin (sulfate),Cholesterol-free,[1]; [15],1.728
same,Complete,"[1]; NCI-H292 cells, complete media",1.371
same,Difference,[1]; [5],−0.36
same,Cholesterol-free media + simvastatin (0.04 μM),"[2]; NCI-H292 cells, cholesterol-free media with simvastatin 0.04 μM, […]",0.9008
same,Complete Media,"[2]; NCI-H292 cells, complete media, […]",0.9756
same,Difference,[2]; [13],0.07
CC(=O)Oc1cc(C(C)C)c(OCCN(C)C)cc1C [Moxisylyte (hydrochloride)],Difference,[1]; [14],0.07
same,Cholesterol-free,[1]; [3],1.028
same,Complete,[1]; [4],1.096
same,Cholesterol-free media + simvastatin (0.04 μM),[2]; [6],1.237
same,Complete Media,[2]; [7],1.071
same,Difference,[2]; [21],−0.17
C[C@]12CC[C@@H]3c4ccc(O)cc4CC[C@H]3[C@@H]1CCC2=O [Estrone],Cholesterol-free,[1]; [15],1.426
same,Complete,"[1]; NCI-H292 cells, complete media",1.109
same,Difference,[1]; [22],−0.32
same,Cholesterol-free media + simvastatin (0.04 μM),[2]; [19],1.409
same,Complete Media,[2]; [20],1.088
same,Difference,[2]; [21],−0.32
Cc1ccc(C(=O)Nc2ccc(CN3CCN(C)CC3)c(C(F)(F)F)c2)cc1C#Cc1cnc2cccnn12 [Ponatinib],Cholesterol-free,[1],0.1141
same,Complete,[1],0.07529
same,Difference,[1],−0.04
same,Cholesterol-free media + simvastatin (0.04 μM),[2],0.4683
same,Complete Media,[2],0.4064
same,Difference,[2],−0.06
Mafenide (Acetate),Difference,[1]; [23],−0.16
same,Cholesterol-free,[1]; [10],1.179
same,Complete,[1]; [11],1.017
same,Cholesterol-free media + simvastatin (0.04 μM),[2]; [16],0.8255
same,Complete Media,[2]; [17],0.8982
same,Difference,[2]; [18],0.07
COc1cc2c(cc1OC)C(=O)C(CC1CCN(Cc3ccccc3)CC1)C2 (centres unmarked) [Donepezil (Hydrochloride)],Difference,[1]; [14],−0.23
same,Cholesterol-free,[1]; [15],0.9321
same,Complete,"[1]; NCI-H292 cells, complete media",0.7035
same,Cholesterol-free media + simvastatin (0.04 μM),[2]; [12],0.6694
same,Complete Media,[2]; [11],0.8164
same,Difference,[2]; [18],0.15
Cl.N[C@@H](CS)C(=O)O [L-Cysteine (hydrochloride)],Difference,[1]; [9],−0.04
same,Cholesterol-free,[1]; [3],1.166
same,Complete,[1]; [4],1.124
same,Cholesterol-free media + simvastatin (0.04 μM),[2]; [6],1.122
same,Complete Media,[2]; [7],0.9187
same,Difference,[2]; [8],−0.20
O=C(O)P(=O)(O)O [Foscarnet (sodium)],Cholesterol-free,[1]; [15],1.261
same,Complete,"[1]; NCI-H292 cells, complete media",0.9196
same,Difference,[1]; [22],−0.34
same,Cholesterol-free media + simvastatin (0.04 μM),[2]; [6],1.224
same,Complete Media,[2]; [7],1.051
same,Difference,[2]; [21],−0.17
Metaproterenol (hemisulfate),Cholesterol-free,[1]; [3],0.8425
same,Difference,[1]; [24],0.09
same,Cholesterol-free media + simvastatin (0.04 μM),[2]; [6],1.002
same,Complete Media,[2]; [7],0.7891
same,Difference,[2]; [21],−0.21
N[C@H](CO)C(=O)O [(R)-Serine],Cholesterol-free,[1]; [15],1.718
same,Complete,"[1]; NCI-H292 cells, complete media",1.345
same,Difference,[1]; [22],−0.37
same,Cholesterol-free media + simvastatin (0.04 μM),[2]; [16],0.9633
same,Complete Media,[2]; [17],1.052
same,Difference,[2]; [18],0.09
Nc1c2c(nc3ccccc13)CCCC2 [Tacrine hydrochloride hydrate],Cholesterol-free,[1]; [3],1.254
same,Complete,[1]; [4],1.477
same,Difference,[1]; [24],0.22
same,Cholesterol-free media + simvastatin (0.04 μM),"[2]; NCI-H292 cells, cholesterol-free media with simvastatin 0.04 μM, FDA drug library screen (TABLE 2)",1.406
same,Complete Media,"[2]; NCI-H292 cells, complete media, FDA drug library screen (TABLE 2)",1.383
same,Difference,"[2]; complete media minus cholesterol-free media + simvastatin (0.04 μM), >0 enhanced anti-cancer activity, about 0 neutral, <0 antagonist",−0.02
Cc1nc(C(=O)NCC(=O)O)c(O)c2ccc(Oc3ccccc3)cc12 [Roxadustat],Difference,[1]; [23],−0.11
same,Cholesterol-free,[1]; [10],1.074
same,Complete,[1]; [11],0.9662
same,Cholesterol-free media + simvastatin (0.04 μM),[2]; [16],1.201
same,Complete Media,[2]; [17],1.327
same,Difference,[2]; [18],0.13
OCCN1CCN(CCCN2c3ccccc3Sc3ccc(Cl)cc32)CC1 [Perphenazine],Difference,[1]; [14],0.00
same,Cholesterol-free,[1]; [3],0.9098
same,Complete,[1]; [4],0.9103
same,Cholesterol-free media + simvastatin (0.04 μM),[2]; [12],0.707
same,Complete Media,[2]; [11],0.9554
same,Difference,[2]; [18],0.25
Sisomicin (sulfate),Difference,[1]; [14],−0.04
same,Cholesterol-free,[1]; [3],0.9293
same,Complete,[1]; [4],0.8918
same,Cholesterol-free media + simvastatin (0.04 μM),[2]; [16],0.697
same,Complete Media,[2]; [17],0.7346
same,Difference,[2]; [18],0.04
O=C(CCCCC(=O)Nc1c(I)cc(I)c(C(=O)O)c1I)Nc1c(I)cc(I)c(C(=O)O)c1I [Iodipamide],Difference,[1]; [23],−0.08
same,Cholesterol-free,[1]; [10],0.9527
same,Complete,[1]; [11],0.876
same,Cholesterol-free media + simvastatin (0.04 μM),[2]; [6],1.387
same,Complete Media,[2]; [7],1.135
same,Difference,[2]; [21],−0.25
C[C@H]1C[C@H]2[C@@H]3CCC4=CC(=O)C=C[C@]4(C)[C@H]3C(=O)C[C@]2(C)[C@@]1(O)C(=O)CO [Meprednisone],Cholesterol-free,[1]; [3],0.7649
same,Complete,[1]; [4],1.522
same,Difference,[1]; [24],0.76
same,Cholesterol-free media + simvastatin (0.04 μM),[2]; [6],1.224
same,Complete Media,[2]; [7],0.9766
same,Difference,[2]; [21],−0.25
CC[C@H]1CN2CC[C@H]1C[C@@H]2[C@@H](O)c1ccnc2ccc(OC)cc12 [Hydroquinidine],Difference,[1]; [14],0.06
same,Cholesterol-free,[1]; [3],0.8191
same,Complete,[1]; [4],0.8815
same,Cholesterol-free media + simvastatin (0.04 μM),[2]; [19],1.791
same,Complete Media,[2]; [20],1.518
same,Difference,[2]; [21],−0.27
CCCCc1oc2ccc(NS(C)(=O)=O)cc2c1C(=O)c1ccc(OCCCN(CCCC)CCCC)cc1 [Dronedarone (Hydrochloride)],Cholesterol-free,[1]; [3],0.4604
same,Difference,[1]; [24],0.28
same,Complete Media,[2]; [17],0.8231
same,Difference,[2]; [18],0.06
CC(C)(C)c1ccc(C(O)CCCN2CCC(C(O)(c3ccccc3)c3ccccc3)CC2)cc1 (centres unmarked) [Terfenadine],Cholesterol-free,[1]; [15],1.145
same,Complete,"[1]; NCI-H292 cells, complete media",0.8219
same,Difference,[1]; [22],−0.32
same,Cholesterol-free media + simvastatin (0.04 μM),[2]; [16],0.9762
same,Complete Media,[2]; [17],1.013
same,Difference,[2]; [18],0.04
CCC[C@@H]1C[C@@H](C(=O)N[C@@H]([C@H]2O[C@H](SC)[C@H](OP(=O)(O)O)[C@@H](O)[C@H]2O)[C@H](C)Cl)N(C)C1 [Clindamycin (phosphate)],Cholesterol-free,[1]; [15],1.342
same,Complete,"[1]; NCI-H292 cells, complete media",0.8969
same,Difference,[1]; [22],−0.44
same,Cholesterol-free media + simvastatin (0.04 μM),[2]; [16],1.017
same,Complete Media,[2]; [17],1.129
same,Difference,[2]; [18],0.11
Tofacitinib (citrate),Difference,[1]; [14],−0.26
same,Cholesterol-free,[1]; [15],0.8106
same,Complete,"[1]; NCI-H292 cells, complete media",0.5473
same,Cholesterol-free media + simvastatin (0.04 μM),[2]; [6],0.9122
same,Complete Media,[2]; [7],0.6806
same,Difference,[2]; [21],−0.23
O=C(O)c1ccccc1Nc1cccc(C(F)(F)F)c1 [Flufenamic acid],Difference,[1]; [14],−0.24
same,Cholesterol-free,[1]; [15],1.258
same,Complete,"[1]; NCI-H292 cells, complete media",1.021
same,Cholesterol-free media + simvastatin (0.04 μM),[2]; [6],1.298
same,Complete Media,[2]; [7],1.077
same,Difference,[2]; [21],−0.22
COc1ccc(-n2nc(C(N)=O)c3c2C(=O)N(c2ccc(N4CCCCC4=O)cc2)CC3)cc1 [Apixaban],Difference,[1]; [14],−0.06
same,Cholesterol-free,[1]; [3],0.9998
same,Complete,[1]; [4],0.9349
same,Cholesterol-free media + simvastatin (0.04 μM),[2]; [12],0.9978
same,Complete Media,[2]; [11],1.135
same,Difference,[2]; [18],0.14
O=C1NCC2(CCN(CCc3ccccc3)CC2)O1 [Fenspiride (Hydrochloride)],Cholesterol-free,[1]; [3],0.597
same,Complete,[1]; [4],0.752
same,Difference,[1]; [24],0.15
same,Cholesterol-free media + simvastatin (0.04 μM),[2]; [6],1.105
same,Complete Media,[2]; [7],0.9138
same,Difference,[2]; [21],−0.19
